Data from PMC6524873 (TH Open: Companion Journal to Thrombosis and Haemostasis, 2018).

Columns and labels:
[1] = system: human plasma; test: Prothrombin time (PT) in pooled normal human plasma; format: biochemical; details: up to 1,100 ng/mL
Procedure: (§1) The ranges of inhibitor concentrations were chosen to encompass the peak and trough plasma levels measured in patients treated with these agents. [26] The PT was performed using HemosIL HS PLUS (Instrumentation Laboratory, Lexington, Massachusetts, United States) on an ACL 7000 coagulometer (Instrumentation Laboratory) according to the manufacturer's instructions. The aPTT was performed using Actin FSL reagent (Siemens, Marburg, Germany) on a BCS XP analyzer (Siemens) according to the manufacturer's instructions. Assays were performed three times in duplicate at 37 ° C. These PT and aPTT reagents were chosen because of their wide availability and their reported sensitivities to rivaroxaban and apixaban. [27]

[2] = molecular target: T1, factor Xa (Homo sapiens, UniProt P00742); test: Rate constants of inhibition of factor Xa (Pefafluor Xa, mixed inhibition model, Scheme 1); format: biochemical; set-up: factor Xa and thrombin were purchased from Enzyme Research Laboratories; purchased Enzyme Research Laboratories (South Bend, IN)
[3] = molecular target: factor Xa incorporated into the prothrombinase complex (Homo sapiens, UniProt P00742); test: Factor Xa chromogenic activity in the presence of factor Va, PCPS and prothrombin (hirudin added); details: dose-dependent, data not shown
[4] = system: thrombin generation in plasma; test: Plasma-based calibrated thrombin generation assay; format: biochemical, human; details: 3 pM tissue factor, concentration-dependent
[5] = system: human plasma; test: Activated partial thromboplastin time (aPTT) in pooled normal human plasma; format: biochemical; details: up to 1,100 ng/mL
Procedure: as §1

[6] = molecular target: T2, factor Xa incorporated in prothrombinase (Homo sapiens, UniProt P00742); test: Rate constants of inhibition of factor Xa in prothrombinase (prothrombin activation, thrombin-DAPA fluorescence, Scheme 2)
[7] = molecular target: T1, factor Xa; test: biochemical; details: read-out: inhibition of factor Xa chromogenic activity
[8] = molecular target: T2, factor Xa incorporated in prothrombinase; test: Rate constants of inhibition of prothrombinase with rMZ as substrate (meizothrombin-DAPA fluorescence); details: 37°C
[9] = 37°C, […] inhibitor, 100 µM Pefafluor Xa, […] factor Xa
[10] = 37°C, prothrombinase in complex with either form of meizothrombin
[11] = 37°C, prothrombinase in complex with prothrombin
[12] = prothrombin substrate, 37°C, prothrombinase without prothrombin

T1 sequence (P00742 41-179 limits assumed): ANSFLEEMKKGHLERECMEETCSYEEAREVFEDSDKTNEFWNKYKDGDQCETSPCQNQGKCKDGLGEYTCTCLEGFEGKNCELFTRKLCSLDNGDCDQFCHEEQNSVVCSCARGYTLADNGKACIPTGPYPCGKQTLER
T1 sequence (P00742 235-488 limits assumed): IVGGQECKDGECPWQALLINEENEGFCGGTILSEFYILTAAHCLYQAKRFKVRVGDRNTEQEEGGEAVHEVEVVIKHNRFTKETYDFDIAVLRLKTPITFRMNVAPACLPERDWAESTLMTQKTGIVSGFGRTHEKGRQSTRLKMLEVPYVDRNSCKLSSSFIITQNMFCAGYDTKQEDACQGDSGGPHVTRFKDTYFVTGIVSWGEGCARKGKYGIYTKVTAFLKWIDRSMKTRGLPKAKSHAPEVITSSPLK
T2 sequence (P00742 41-179 limits assumed): as the sequence (P00742 41-179 limits assumed) above
T2 sequence (P00742 235-488 limits assumed): as the sequence (P00742 235-488 limits assumed) above
T2 sequence (P12259 29-737 partner limits assumed): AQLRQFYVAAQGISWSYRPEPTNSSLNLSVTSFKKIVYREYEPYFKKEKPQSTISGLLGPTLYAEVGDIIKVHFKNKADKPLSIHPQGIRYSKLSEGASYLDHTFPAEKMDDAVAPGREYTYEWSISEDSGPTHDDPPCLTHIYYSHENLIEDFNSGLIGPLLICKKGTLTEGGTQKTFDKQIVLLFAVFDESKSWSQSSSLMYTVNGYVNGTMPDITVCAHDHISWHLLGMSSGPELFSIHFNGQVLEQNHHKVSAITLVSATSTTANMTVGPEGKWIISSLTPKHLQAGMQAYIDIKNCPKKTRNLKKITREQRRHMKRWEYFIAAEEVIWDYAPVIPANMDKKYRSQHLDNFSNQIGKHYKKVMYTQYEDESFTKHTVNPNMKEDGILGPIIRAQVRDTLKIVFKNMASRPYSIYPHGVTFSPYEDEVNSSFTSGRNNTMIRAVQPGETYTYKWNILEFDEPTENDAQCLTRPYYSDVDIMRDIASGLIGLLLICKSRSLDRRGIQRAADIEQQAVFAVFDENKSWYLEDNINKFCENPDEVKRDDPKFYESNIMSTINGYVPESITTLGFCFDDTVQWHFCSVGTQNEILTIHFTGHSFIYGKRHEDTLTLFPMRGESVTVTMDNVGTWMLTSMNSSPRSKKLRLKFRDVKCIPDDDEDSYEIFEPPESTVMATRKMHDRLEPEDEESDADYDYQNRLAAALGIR
T2 sequence (P12259 1574-2224 partner limits assumed): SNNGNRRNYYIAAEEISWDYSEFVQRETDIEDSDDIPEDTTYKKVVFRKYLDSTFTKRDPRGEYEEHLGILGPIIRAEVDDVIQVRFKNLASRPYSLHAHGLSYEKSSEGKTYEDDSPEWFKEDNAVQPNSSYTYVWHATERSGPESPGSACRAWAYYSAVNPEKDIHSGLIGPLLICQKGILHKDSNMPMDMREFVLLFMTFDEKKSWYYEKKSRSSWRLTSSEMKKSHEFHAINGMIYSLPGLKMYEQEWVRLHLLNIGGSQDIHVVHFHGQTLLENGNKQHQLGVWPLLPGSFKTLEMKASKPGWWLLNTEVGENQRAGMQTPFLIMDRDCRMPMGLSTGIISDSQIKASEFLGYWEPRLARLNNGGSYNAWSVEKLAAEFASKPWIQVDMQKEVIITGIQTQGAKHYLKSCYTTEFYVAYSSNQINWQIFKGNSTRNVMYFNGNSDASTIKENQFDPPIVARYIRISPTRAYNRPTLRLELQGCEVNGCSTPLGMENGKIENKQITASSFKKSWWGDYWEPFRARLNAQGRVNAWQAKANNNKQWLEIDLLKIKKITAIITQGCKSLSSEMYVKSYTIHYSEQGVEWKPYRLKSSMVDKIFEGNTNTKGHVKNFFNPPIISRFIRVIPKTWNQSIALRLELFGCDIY
Sequence of factor Xa incorporated into the prothrombinase complex (P00742 41-179 limits assumed): as the sequence (P00742 41-179 limits assumed) above
Sequence of factor Xa incorporated into the prothrombinase complex (P00742 235-488 limits assumed): as the sequence (P00742 235-488 limits assumed) above
Sequence of factor Xa incorporated into the prothrombinase complex (P12259 29-737 partner limits assumed): as the sequence (P12259 29-737 partner limits assumed) above
Sequence of factor Xa incorporated into the prothrombinase complex (P12259 1574-2224 partner limits assumed): as the sequence (P12259 1574-2224 partner limits assumed) above

Structure (SMILES): O=C(NC[C@H]1CN(c2ccc(N3CCOCC3=O)cc2)C(=O)O1)c1ccc(Cl)s1 [Rivaroxaban, 5-chloro-N-((5S)-2-oxo-3-[4-(3-oxomorpholin-4-yl)phenyl]-1,3-oxazolidin-5-ylmethyl)thiophene-2-carboxamide]
- effect on the PT [1]: prolonged the PT and aPTT in a concentration-dependent manner
- j 3, off-rate, free factor Xa [2, 9]: (3.21 ± 0.28) × 10 ^−2 s ^−1
- j 4, off-rate, factor Xa-substrate complex [2, 9]: (2.01 ± 0.17) × 10 ^−2 s ^−1
- k 3, on-rate, free factor Xa [2, 9]: (3.77 ± 0.32) × 10 ^−2 nM ^−1 ·s ^−1
- k 4, on-rate, factor Xa-substrate complex [2, 9]: (1.34 ± 0.04) × 10 ^−2 nM ^−1 ·s ^−1
- on- and off-rate constants for binding factor Xa alone (k 3 and j 3), on average faster than apixaban ([2]; average of k3 and j3 ratios): 21 fold
- binding to the factor Xa-fluorogenic substrate complex (k 4 and j 4), on average faster than apixaban ([2]; average of k4 and j4 ratios): 25 fold
- rate of factor Xa inhibition, faster than apixaban ([2]; kinetic measurements, p < 0.001): up to 4 fold
- inhibition of factor Xa chromogenic activity in the presence of prothrombinase components [3]: over 95%
- effect on endogenous thrombin potential (ETP) [4]: decreased endogenous thrombin potential (ETP)
- effect on lag time [4]: prolonged the lag time
- effect on peak thrombin concentration [4]: reduced peak thrombin concentration
- effect on the aPTT [5]: prolonged the PT and aPTT in a concentration-dependent manner
- ji 3, off-rate, E · M + I ⇔ E · M · I or E · M2 + I ⇔ E · M2 · I [6, 10]: (2.95 ± 0.11) × 10 ^−3 s ^−1
- ki 3, on-rate, E · M + I ⇔ E · M · I or E · M2 + I ⇔ E · M2 · I [6, 10]: (2.37 ± 0.22) × 10 ^−3 nM ^−1 ·s ^−1
- ji 2, off-rate, E · P + I ⇔ E · P · I [6, 11]: (1.12 ± 0.15) × 10 ^−2 s ^−1
- ki 2, on-rate, E · P + I ⇔ E · P · I [6, 11]: (1.24 ± 0.02) × 10 ^−2 nM ^−1 ·s ^−1
- K Pase1, lower than apixaban ([6]; free enzyme inhibition, prothrombin substrate): 454 fold
- dissociation rates, faster than apixaban ([6]; free factor Xa or factor Xa incorporated into the prothrombinase complex): about 3 fold
- ji 1, off-rate, E + I ⇔ E · I [6, 12]: (1.31 ± 0.11) × 10 ^−3 s ^−1
- ki 1, on-rate, E + I ⇔ E · I [6, 12]: (5.38 ± 0.35) × 10 ^−3 nM ^−1 ·s ^−1
- ki 3 on-rate with prothrombinase-meizothrombin complex, slower than apixaban ([6]; rivaroxaban slower than apixaban): 3 fold
- inhibition at 0.02 µM [7]: ~85%
- ji 1, off-rate, E + I ⇔ E · I ([8]; free prothrombinase): (2.15 ± 0.18) × 10 ^−3 s ^−1
- ki 1, on-rate, E + I ⇔ E · I ([8]; free prothrombinase): (3.46 ± 0.49) × 10 ^−2 nM ^−1 ·s ^−1
- ji 2, off-rate, E · rMZ + I ⇔ E · rMZ · I ([8]; prothrombinase-rMZ complex): (1.23 ± 0.08) × 10 ^−4 s ^−1
- ki 2, on-rate, E · rMZ + I ⇔ E · rMZ · I ([8]; prothrombinase-rMZ complex): (6.41 ± 0.44) × 10 ^−3 nM ^−1 ·s ^−1

Structure (SMILES): COc1ccc(-n2nc(C(N)=O)c3c2C(=O)N(c2ccc(N4CCCCC4=O)cc2)CC3)cc1 [Apixaban, 1-(4-methoxyphenyl)-7-oxo-6-(4-(2-oxopiperidin-1-yl)phenyl)-4,5,6,7-tetrahydro-1H-pyrazolo[3,4-c]pyridine-3-carboxamide]
- effect on the PT [1]: prolonged the PT and aPTT in a concentration-dependent manner
- effect on endogenous thrombin potential (ETP) [4]: decreased endogenous thrombin potential (ETP)
- effect on lag time [4]: prolonged the lag time
- effect on the aPTT [5]: prolonged the PT and aPTT in a concentration-dependent manner
